Test [1] has as its system HCT116 MTAP null cells. Kind of test: HCT116 MTAP null cell proliferation / viability (CellTiter-Glo, 6 days). In kind it is cell-based. Particulars: HCT116-MTAP null, 144 h, HCT116 MTAP null cells, 6 days, CellTiter-Glo; read-out: HCT-116 MTAP null IC50. The gist of the method: (§1)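 IC50 values derive from sigmoidal dose-response fits, some with Hill slope fixed at −1 and top constrained to 100%, others from 4-parameter logistic models. They reflect CellTiter-Glo viability after 6 days of compound exposure at up to 10 or 50 μM.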
A general note: ATP-based viability assays read luminescence as a measure of living cells.

Test [2] relates to HCT116 WT cells. Kind of test: HCT116 WT cell proliferation / viability (CellTiter-Glo, 6 days). In kind it is cell-based. Conditions: Homo sapiens, HCT-116, 144 h, HCT116 WT cells, 6 days, CellTiter-Glo; read-out: HCT-116 WT IC50. The method in brief:
as §1

Consider `CC(C)(C)CN(Cc1ccc(C(F)(F)F)cn1)C(=O)c1ccc2nc(N)c3c(c2c1)COC3(C)C` [Example 340, 4-amino-N-(2,2-dimethylpropyl)-3,3-dimethyl-N-((5-(trifluoromethyl)-2-pyridinyl)methyl)-1,3-dihydrofuro[3,4-c]quinoline-8-carboxamide], for which the IC50 in test [1] was 2950 nM; in test [2], over 10000 nM.
Taken in the same sequence, the figures for `C[C@H]1OCc2c1c(N)nc1cnc(C(=O)N(Cc3ccc(C(F)(F)F)cn3)c3cnn(C)c3)cc21` (single isomer, unassigned) [Example 828] were 26 nM and 294 nM.
As to `CC(C)N(Cc1ccc(C(F)(F)F)cn1)C(=O)c1ccc2[nH]c(=O)n3nccc3c2c1` [Example 431, 5-oxo-N-(2-propanyl)-N-((5-(trifluoromethyl)-2-pyridinyl)methyl)-5,6-dihydropyrazolo[1,5-c]quinazoline-9-carboxamide], the IC50 in test [1] came out at 14300 nM; in test [2], 23500 nM.
For `CN(Cc1ccc(C(F)(F)F)nn1)C(=O)c1cc2c3c(c(N)nc2cc1Cl)COC3` [Example 389, 4-amino-7-chloro-N-methyl-N-((6-(trifluoromethyl)-3-pyridazinyl)methyl)-1,3-dihydrofuro[3,4-c]quinoline-8-carboxamide] the same measures were 50 nM and 3390 nM.
Taken in the same sequence, the figures for `COC[C@@H](C)N(Cc1ccc(C(F)(F)F)cn1)C(=O)c1cnc2nc(N)c3c(c2c1)COC3` [Example 322, 4-amino-N-((2R)-1-methoxy-2-propanyl)-N-((5-(trifluoromethyl)-2-pyridinyl)methyl)-1,3-dihydrofuro[3,4-c][1,8]naphthyridine-8-carboxamide] were 81 nM and 1030 nM.
Turning to `CC(C)N(Cc1ccc(C2CC2)nc1)C(=O)c1cc2c3c(c(N)nc2cn1)[C@H](C)OC3` [Example 403, (3S)-4-amino-N-((6-cyclopropyl-3-pyridinyl)methyl)-3-methyl-N-(2-propanyl)-1,3-dihydrofuro[3,4-c][1,7]naphthyridine-8-carboxamide], the IC50 in test [1] was at least 10000 nM; in test [2], over 10000 nM.
Taken in the same sequence, the figures for `CN(Cc1ccc(Cl)cn1)C(=O)c1ccc2nc(N)c3c(c2c1)COC3` [Example 702, 4-amino-N-((5-chloro-2-pyridinyl)methyl)-N-methyl-1,3-dihydrofuro[3,4-c]quinoline-8-carboxamide] were 470 nM and 4120 nM.
In the case of `CN(Cc1ccc(F)nc1F)C(=O)c1cc2c(cc1F)nc(N)c1cnn(C)c12` [Example 771, 4-amino-N-((2,6-difluoro-3-pyridinyl)methyl)-7-fluoro-N,1-dimethyl-1H-pyrazolo[4,3-c]quinoline-8-carboxamide], the half-inhibitory concentration (IC50) in test [1] stood at 395 nM; in test [2], 31100 nM.
`C[C@H]1OCc2c1c(N)nc1cnc(C(=O)N(Cc3ccc(OC(F)F)nn3)CC3CC3)cc21` [Example 424, (3R)-4-amino-N-(cyclopropylmethyl)-N-((6-(difluoromethoxy)-3-pyridazinyl)methyl)-3-methyl-1,3-dihydrofuro[3,4-c][1,7]naphthyridine-8-carboxamide]: the half-inhibitory concentration (IC50) worked out at 32 nM in test [1] and 1340 nM in test [2].
Taken in the same sequence, the figures for `CCN(Cc1ccc(S(F)(F)(F)(F)F)cc1)C(=O)c1cc2c(cn1)nc(N)c1cnn(C)c12` [Example 565, 4-amino-N-ethyl-1-methyl-N-(4-(pentafluoro-lambda~6~- sulfanyl)benzyl)-1H-pyrazolo[4,3-c][1,7]naphthyridine-8-carboxamide] were 19 nM and 653 nM.
As to `CCN(C(=O)c1ccc2nc(N)c3c(c2c1)CO[C@@H]3C)[C@@H](C)c1ccc(C#N)cn1` (single isomer, unassigned) [Example 843], the IC50 is 3360 nM in test [1] and over 50000 nM in test [2].
On to `C[C@H](c1ncccn1)N(Cc1ccc(C(F)(F)F)nn1)C(=O)c1ccc2nc(N)c3c(c2c1)CCC3` (single isomer, unassigned) [Example 649], for which the IC50 in test [1] was 14 nM; in test [2], 181 nM.

Usually IC50 stands for the midpoint of a concentration-inhibition curve.

The record behind these values is patent publication US20240101570A1 (AMGEN INC., priority 2020, published 2024).
